The values that follow come from patent US11040981B2, “Pyrrolotriazine compounds and methods of inhibiting TAM kinases” (Syros Pharmaceuticals, Inc., priority 2017, dated 2021).

The target of one experiment is T1, MERTK (Homo sapiens, UniProt Q12866).
T1 sequence (Q12866 21-999): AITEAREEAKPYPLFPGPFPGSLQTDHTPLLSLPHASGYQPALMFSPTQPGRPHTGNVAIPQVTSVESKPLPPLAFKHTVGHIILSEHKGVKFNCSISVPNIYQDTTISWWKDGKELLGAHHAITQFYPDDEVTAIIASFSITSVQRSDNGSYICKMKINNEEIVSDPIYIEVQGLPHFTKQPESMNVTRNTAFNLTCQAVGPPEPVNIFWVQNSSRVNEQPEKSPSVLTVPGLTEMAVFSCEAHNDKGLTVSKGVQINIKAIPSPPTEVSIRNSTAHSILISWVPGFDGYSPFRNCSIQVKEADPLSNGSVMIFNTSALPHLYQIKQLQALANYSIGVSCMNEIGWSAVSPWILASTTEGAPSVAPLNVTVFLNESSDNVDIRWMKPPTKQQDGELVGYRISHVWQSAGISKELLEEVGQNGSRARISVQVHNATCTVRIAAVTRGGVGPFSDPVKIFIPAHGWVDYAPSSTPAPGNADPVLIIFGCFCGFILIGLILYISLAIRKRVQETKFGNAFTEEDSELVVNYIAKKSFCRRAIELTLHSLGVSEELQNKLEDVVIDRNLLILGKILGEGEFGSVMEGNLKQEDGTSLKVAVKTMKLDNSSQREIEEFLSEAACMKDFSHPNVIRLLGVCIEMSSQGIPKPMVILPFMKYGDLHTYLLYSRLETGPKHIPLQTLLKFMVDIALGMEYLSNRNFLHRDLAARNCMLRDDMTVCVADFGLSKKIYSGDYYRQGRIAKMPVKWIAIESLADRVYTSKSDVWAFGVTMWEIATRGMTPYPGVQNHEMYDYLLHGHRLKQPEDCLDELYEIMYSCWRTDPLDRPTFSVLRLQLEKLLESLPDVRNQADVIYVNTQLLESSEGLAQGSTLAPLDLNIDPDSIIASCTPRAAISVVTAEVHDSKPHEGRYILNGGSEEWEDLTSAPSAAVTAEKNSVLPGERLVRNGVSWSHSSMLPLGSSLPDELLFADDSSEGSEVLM
Kind of experiment: TR-FRET kinase activity assay, MERTK. Format: biochemical. The note with it: for IC50: TR-FRET activity assay, ATP at Km, 60 minutes, read-out: Mer IC50. In outline: (§1)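 Enzyme + labelled peptide + cpd premixed; ATP at per-enzyme Km starts rxn. 60 min RT, HEPES pH 7.5/MgCl2/EGTA/Brij 35/DTT buffer. Stop 12.5 mM EDTA, Eu phospho-Ab 30 min dark, TR-FRET read → IC50.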

The next experiment has as its target T2, TYRO3 (Homo sapiens, UniProt Q06418).
T2 sequence (Q06418 41-890): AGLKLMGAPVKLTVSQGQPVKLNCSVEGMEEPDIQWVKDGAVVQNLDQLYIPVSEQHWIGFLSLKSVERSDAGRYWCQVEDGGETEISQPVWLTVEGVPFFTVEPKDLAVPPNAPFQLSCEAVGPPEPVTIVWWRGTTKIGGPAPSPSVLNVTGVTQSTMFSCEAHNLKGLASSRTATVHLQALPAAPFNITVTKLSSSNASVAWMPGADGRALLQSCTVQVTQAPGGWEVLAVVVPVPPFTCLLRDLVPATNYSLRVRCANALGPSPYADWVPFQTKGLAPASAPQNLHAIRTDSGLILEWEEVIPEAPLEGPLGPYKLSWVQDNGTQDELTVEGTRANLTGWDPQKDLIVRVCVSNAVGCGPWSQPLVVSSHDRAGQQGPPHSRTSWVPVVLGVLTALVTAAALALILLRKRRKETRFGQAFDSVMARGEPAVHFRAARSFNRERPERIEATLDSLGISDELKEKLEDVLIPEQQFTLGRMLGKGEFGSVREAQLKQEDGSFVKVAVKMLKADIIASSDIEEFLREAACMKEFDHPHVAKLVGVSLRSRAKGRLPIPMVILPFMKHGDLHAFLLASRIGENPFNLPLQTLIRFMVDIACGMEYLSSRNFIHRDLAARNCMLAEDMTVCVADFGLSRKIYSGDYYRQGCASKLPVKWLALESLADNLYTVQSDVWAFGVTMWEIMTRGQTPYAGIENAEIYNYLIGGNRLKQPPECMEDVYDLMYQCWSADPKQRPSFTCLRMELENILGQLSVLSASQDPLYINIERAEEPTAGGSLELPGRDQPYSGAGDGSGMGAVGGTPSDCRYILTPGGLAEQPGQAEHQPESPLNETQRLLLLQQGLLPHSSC
Briefly: TR-FRET kinase activity assay, TYRO3. In kind it is biochemical. The note with it: ATP at Km, 60 minutes. In outline:
as §1
For orientation: Time-resolved FRET reads energy transfer from a long-lived donor to a nearby acceptor.

Setting [1] is: ratio of Mer to FLT3: FLT3 IC50/Mer IC50.

The structures appear in SMILES notation. A value given as a limit tells only on which side of the number the result lay.

The IC50 is the concentration that inhibits the measured activity by half. For `CNC(=O)c1cc(-c2cc([C@H]3CC[C@H](O)CC3)n3nc(N[C@@H](C)CC(F)(F)F)ncc23)cc(C)n1` [Compound 353], the IC50 at MERTK and at TYRO3 was not above 100 nM in each case. Besides, the “FLT3/Mer ratio (FLT3 IC50/Mer IC50)” value at MERTK (setting [1]) was “+++ (“+++” represents a ratio of >100)”.
`CC(COC(F)F)Nc1ncc2c(-c3cnn(C(C)(C)C(=O)N4CCOCC4)c3)cc(C3CCC(O)CC3)n2n1` (stereo not drawn) [Compound 393]: the IC50 at MERTK and on TYRO3 was not above 100 nM in each case. The “FLT3/Mer ratio (FLT3 IC50/Mer IC50)” value on MERTK (setting [1]) is reported as “+++ (“+++” represents a ratio of >100)”.
With `COC[C@H](C)Nc1ncc2c(-c3ccnc(O[C@@H]4CCN(C)C4)c3)cc([C@H]3CC[C@H](O)CC3)n2n1` [Compound 402], the half-maximal inhibitory concentration (IC50) on MERTK and on TYRO3 was not above 100 nM each time. In addition, on MERTK (ratio calculated as FLT3 IC50/Mer IC50), the “FLT3/Mer ratio (FLT3 IC50/Mer IC50)” value is given as “+++ (“+++” represents a ratio of >100)”.
With `CCCCC[C@H](C)Nc1ncc2c(C3=CCC(C(=O)O)CC3)cc([C@H]3CC[C@H](O)CC3)n2n1` (stereo partly drawn) [Compound 122, 4-(2-((S)-heptan-2-ylamino)-7-((trans)-4-hydroxycyclohexyl)pyrrolo[2,1-f][1,2,4]triazin-5-yl)cyclohex-3-enecarboxylic acid], the half-maximal inhibitory concentration (IC50) at MERTK and on TYRO3 was not above 100 nM throughout. In addition, the “FLT3/Mer ratio (FLT3 IC50/Mer IC50)” value on MERTK (setting [1]) is listed as “+++ (“+++” represents a ratio of >100)”.
For the compound `OC1CCC(c2cc(-c3ccnc(N4CCOCC4)c3)c3cnc(NC4CCOC4)nn23)CC1` (stereo not drawn) [Compound 356], the 50% inhibitory concentration (IC50) at MERTK and against TYRO3 was not above 100 nM in each case. The “FLT3/Mer ratio (FLT3 IC50/Mer IC50)” value on MERTK (setting [1]) was “++ (“++” represents a ratio of between 10 and 100)”.
In the case of `COC[C@H](C)Nc1ncc2c(-c3cnn(CC4CC(=O)N(C)C4)c3)cc([C@H]3CC[C@H](O)CC3)n2n1` (stereo partly drawn) [Compound 395], the 50% inhibitory concentration (IC50) at MERTK and against TYRO3 was not above 100 nM in each case. Also, the “FLT3/Mer ratio (FLT3 IC50/Mer IC50)” value on MERTK (setting [1]) was “+++ (“+++” represents a ratio of >100)”.
Turning to `COCC(C)Nc1ncc2c(C3CCN(C(C)=O)C3)cc(C3CCC(O)CC3)n2n1` (mixture of isomers) [Compound 383], the concentration for half-maximal inhibition (IC50) at MERTK and against TYRO3 was not above 100 nM each time. Further, the “FLT3/Mer ratio (FLT3 IC50/Mer IC50)” value at MERTK (setting [1]) is on record as “+++ (“+++” represents a ratio of >100)”.
Regarding `CC(=O)N1CCN(Cc2ccc(-c3cc(C4CCC(O)CC4)n4nc(NC(C)CC(F)(F)F)ncc34)cc2)CC1` (stereo not drawn) [Compound 370], the half-inhibitory concentration (IC50) at MERTK and against TYRO3 was not above 100 nM in each case. For the same compound, the “FLT3/Mer ratio (FLT3 IC50/Mer IC50)” value on MERTK (setting [1]) was “+ (“+” represents a ratio of >2.0 and <10)”.
As for `CN1CCN(Cc2ccc(-c3cc(C4CCC(O)CC4)n4nc(NC5CCC5(C)C)ncc34)cc2)CC1` (mixture of isomers) [Compound 121], the IC50 at MERTK and against TYRO3 was not above 100 nM throughout. In addition, at MERTK (setting [1]), the “FLT3/Mer ratio (FLT3 IC50/Mer IC50)” value was “++ (“++” represents a ratio of between 10 and 100)”.
As to `C[C@H](CN(C)C)Nc1ncc2c(-c3cnn(C4COC4)c3)cc([C@H]3CC[C@H](O)CC3)n2n1` [Compound 388], the IC50 fell in the range of 100 to 1000 nM on MERTK and 1000 to 10000 nM on TYRO3. For the same compound, on MERTK (setting [1]), the “FLT3/Mer ratio (FLT3 IC50/Mer IC50)” value was “++ (“++” represents a ratio of between 10 and 100)”.
